According to patent US20030139446A1, “Preparation of pharmaceutical salts” (Schering Corporation, priority 2001, published 2003):
Read-outs that look alike come from different tables or passages of the source.

Conditions: diastereomeric ratio 1,2 to 3,4 in solids 95:5

O=C(O)c1ccccc1O [Salicylate]
stability remark for salt solids (salt prepared in EtOH): stable | stability remark for salt solids (salt prepared in iPrOAc): stable
